This passage reports IC50 results from US6855730B2, “3-methylidenyl-2-indolinone modulators of protein kinase” (Sugen, Inc., priority 1998, dated 2005).

Bounds are passed on as bounds.

Chain of EGFR (P00533 25-1210): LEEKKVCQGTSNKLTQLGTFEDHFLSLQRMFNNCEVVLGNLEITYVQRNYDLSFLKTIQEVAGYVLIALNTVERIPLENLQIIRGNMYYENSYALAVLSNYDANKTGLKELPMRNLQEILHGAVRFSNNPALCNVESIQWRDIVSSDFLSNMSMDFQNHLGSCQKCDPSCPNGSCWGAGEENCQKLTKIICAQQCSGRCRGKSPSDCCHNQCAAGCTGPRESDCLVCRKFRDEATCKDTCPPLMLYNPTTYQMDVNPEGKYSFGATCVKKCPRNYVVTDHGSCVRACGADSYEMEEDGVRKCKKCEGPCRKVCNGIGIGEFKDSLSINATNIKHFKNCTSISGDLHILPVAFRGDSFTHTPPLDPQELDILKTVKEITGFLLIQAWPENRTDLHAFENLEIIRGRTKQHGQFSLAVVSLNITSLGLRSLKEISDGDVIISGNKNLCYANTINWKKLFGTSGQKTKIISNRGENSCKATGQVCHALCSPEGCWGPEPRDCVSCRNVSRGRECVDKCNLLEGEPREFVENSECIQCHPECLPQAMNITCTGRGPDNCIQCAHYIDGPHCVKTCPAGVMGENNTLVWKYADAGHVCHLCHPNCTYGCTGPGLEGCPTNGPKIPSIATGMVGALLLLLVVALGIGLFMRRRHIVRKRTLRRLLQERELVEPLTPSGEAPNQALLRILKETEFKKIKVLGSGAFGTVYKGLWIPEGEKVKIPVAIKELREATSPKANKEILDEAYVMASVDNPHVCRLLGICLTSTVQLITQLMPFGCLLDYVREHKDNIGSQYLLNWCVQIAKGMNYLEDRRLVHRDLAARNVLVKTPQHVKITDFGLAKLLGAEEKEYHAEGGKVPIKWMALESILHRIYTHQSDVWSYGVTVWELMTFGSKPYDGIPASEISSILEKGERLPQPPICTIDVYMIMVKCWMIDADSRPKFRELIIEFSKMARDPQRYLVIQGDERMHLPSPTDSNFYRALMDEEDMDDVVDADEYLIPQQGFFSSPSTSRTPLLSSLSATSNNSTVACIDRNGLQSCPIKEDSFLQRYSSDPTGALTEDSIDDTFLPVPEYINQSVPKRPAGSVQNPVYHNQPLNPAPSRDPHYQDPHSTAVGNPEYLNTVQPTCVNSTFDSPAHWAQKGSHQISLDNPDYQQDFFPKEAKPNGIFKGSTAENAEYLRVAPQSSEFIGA

The target in this assay is EGFR (Homo sapiens, UniProt P00533). The assay can be described thus: EGFR assay (cellular ELISA, NIH 3T3/C7 cells). Format: cell-based. On the set-up: expressed in transfected cells; host or cells: NIH 3T3/C7. Conditions: read-out: cell EGF IC50. The protocol: EGF Receptor kinase activity in cells genetically engineered to express human EGF-R can be measured as described below:
Materials and Reagents. • a. […] 05-101 (UBI) (a monoclonal antibody recognizing an EGFR extracellular domain). • c. Anti-phosphotyosine antibody (anti-Ptyr) (polyclonal). • d. Detection antibody: Goat anti-rabbit IgG horse radish peroxidase conjugate, TAGO, Inc. Burlingame, Calif. • e. TBST buffer:
• Keep solution in dark at 4° C. until used. • h. Stock reagents of:
Pre-coat ELISA Plate • 1. […] Coated plates are good for up to 10 days when stored at 4° C. • 2. On day-of use, remove coating buffer and replace with blocking buffer (5% Carnation Instant NonFat Dry Milk in PBS). Incubate the plate, shaking, at room temperature (about 23° C. to 25° C.) for 30 minutes. Just prior to use, remove blocking buffer and wash plate 4 times with TBST buffer.
Seeding Cells • 1. […] Choose dishes having 80-90% confluence for the experiment. Trypsinize cells and stop reaction by adding 10% CS DMEM medium. Suspend cells in DMEM medium (10% CS DMEM medium) and centrifuge once at 1000 rpm at room temperature for 5 minutes. • 3. Resuspend cells in seeding medium (DMEM, 0.5% bovine serum), and count the cells using trypan blue. Viability above 90% is acceptable. Seed cells in DMEM medium (0.5% bovine serum) at a density of 10,000 cells per well, 100 μl per well, in a 96 well microtiter plate. Incubate seeded cells in 5% CO2 at 37° C. for about 40 hours.
Assay Procedures. • 1. Check seeded cells for contamination using an inverted microscope. Dilute test compounds stock (10 mg/ml in DMSO) 1:10 in DMEM medium, then transfer 5 μl to a test well for a test compounds drug dilution of 1:200 and a final DMSO concentration of 1%. Control wells receive DMSO alone. Incubate in 5% CO2 at 37° C. for one hour. • 2. Prepare EGF ligand: dilute stock EGF in DMEM so that upon transfer of 10 μl dilute EGF (1:12 dilution), 25 nM final concentration is attained. • 3. Prepare fresh 10 ml HNTG* sufficient for 100 μl per well wherein HNTG* comprises: HNTG stock (2.0 ml), milli-Q H2O (7.3 ml), EDTA, 100 mM, pH 7.0 (0.5 ml), Na3VO4 0.5 M (0.1 ml) and Na4(P2O7), 0.2 M (0.1 ml). • 4. Place on ice. • 5. After two hours incubation with drug, add prepared EGF ligand to cells, 10 μl per well, to yield a final concentration of 25 nM. Control wells receive DMEM alone. Incubate, shaking, at room temperature, for 5 minutes. • 6. Remove test compound, EGF, and DMEM. Wash cells twice with PBS. Transfer HNTG* to cells, 100 μl per well. Place on ice for 5 minutes. Meanwhile, remove blocking buffer from other ELISA plate and wash with TBST as described above. • 7. With a pipette tip securely fitted to a micropipettor, scrape cells from plate and homogenize cell material by repeatedly aspirating and dispensing the HNTG* lysis buffer. Transfer lysate to a coated, blocked, and washed ELISA plate. Incubate shaking at room temperature for one hour. • 8. Remove lysate and wash 4 times with TBST. Transfer freshly diluted anti-Ptyr antibody to ELISA plate at 100 μl per well. Incubate shaking at room temperature for 30 minutes in the presence of the anti-Ptyr antiserum (1:3000 dilution in TBST). • 9. Remove the anti-Ptyr antibody and wash 4 times with TBST. Transfer the freshly diluted TAGO 30 anti-rabbit IgG antibody to the ELISA plate at 100 μl per well. Incubate shaking at room temperature for 30 minutes (anti-rabbit IgG antibody: 1:3000 dilution in TBST). • 10. Remove detection antibody and wash 4 times with TBST. Transfer freshly prepared ABTS/H2O2 solution to ELISA plate, 100 μl per well. Incubate at room temperature for 20 minutes. ABTS/H2O2 solution: 1.2 μl 30% H2O2 in 10 ml ABTS stock. • 11. Stop reaction by adding 50 μl 5N H2SO4 (optional), and determine O.D. at 410 nm. • 12. The maximal phosphotyrosine signal is determined by subtracting the value of the negative controls from the positive controls. […]
As to `COc1c(C(C)C)cc(/C=C2/C(=O)Nc3cc(O)ccc32)cc1C(C)C` [Example 4, 3-(3,5-Diisopropyl-4-methoxybenzylidene)-6-hydroxy-1,3-dihydroindol-2-one], the concentration for half-maximal inhibition (IC50) turned out to be 20.1 µM.
Then `COc1ccc(/C=C2/C(=O)Nc3ccc(F)cc32)cc1C1CCCC1` [Example 11, 3-(3-Cyclopentyl-4-methoxybenzylidene)-5-fluoro-1,3-dihydroindol-2-one], with 72.9 µM; and `COc1c(C(C)C)cc(/C=C2/C(=O)Nc3ncccc32)cc1C(C)C` [Example 74, 3-(3,5-Diisopropyl-4-methoxybenzylidene)-1,3-dihydropyrrolo[2,3-b]pyridin-2-one], with greater than 100 µM.
For `CC(=O)Nc1ccc2c(c1)NC(=O)/C2=C/c1ccc(OCCN2CCOCC2)c(C(C)(C)C)c1` [Example 55, N-{3-[3-tert-Butyl-4-(2-morpholin-4-ylethoxy)-benzylidene]-2-oxo-2,3-dihydro-1H-indol-6-yl}-acetamide] the value was 78.4 µM; for `COc1cc(/C=C2/C(=O)Nc3ccccc32)c(-c2ccc3ccccc3c2)cc1OC` [Example 62, 3-(4,5-Dimethoxy-2-naphthalen-2-ylbenzylidene)-1,3-dihydroindol-2-one], greater than 100 µM.
For `CC1(C)CCc2cc(C=C3C(=O)Nc4ccc(Br)cc43)ccc2O1` (racemic) [Example 34, 5-Bromo-3-(2,2-dimethylchroman-6-ylmethylene)-1,3-dihydroindol-2-one] the value was 38.2 µM; for `CCOc1cccc(-c2cc(C=C3C(=O)Nc4ccccc43)ccc2OC)c1` [Example 46, 3-(3′-Ethoxy-6-methoxybiphenyl-3-ylmethylene)-1,3-dihydroindol-2-one], greater than 100 µM.
Regarding `COc1cc(C)c(C=C2C(=O)Nc3cc(NC(C)=O)ccc32)cc1C(C)C` [Example 27, N-[3-(5-Isopropyl-4-methoxy-2-methyl-benzylidene)-2-oxo-2,3-dihydro-1H-indol-6-yl]-acetamide], the IC50 amounted to 30.6 µM.
Then `COc1ccc2c(c1)NC(=O)/C2=C/c1ccc(OC)c(-c2ccsc2)c1` [Example 64, 6-Methoxy-3-(4-methoxy-3-thiophen-3-ylbenzylidene)-1,3-dihydroindol-2-one], with greater than 100 µM; and `COc1ccc(/C=C2\C(=O)Nc3cccc(C)c32)cc1C1CCCCC1` [Example 68, 3-(3-Cyclohexyl-4-methoxybenzylidene)-4-methyl-1,3-dihydroindol-2-one], with greater than 100 µM; and `CC(C)c1cc(/C=C2/C(=O)Nc3ccc(Cl)cc32)cc(C(C)C)c1OCCN1CCOCC1` [Example 24, 5-chloro-3-[3,5-diisopropyl-4-(2-morpholin-4-ylethoxy)-benzylidene]-1,3-dihydroindol-2-one], with 38.5 µM.
Then `COc1ccc(C=C2C(=O)Nc3ccccc32)cc1-c1cccc(NC(C)=O)c1` [Example 29, N-[2′-Methoxy-5′-(2-oxo-1,2-dihydroindol-3-ylidenemethyl)-biphenyl-3-yl]-acetamide], with greater than 100 µM; and `COc1cc(C)c(C=C2C(=O)Nc3ccccc32)cc1C(C)C` [Example 8, 3-(5-Isopropyl-4-methoxy-2-methylbenzylidene)-1,3-dihydroindol-2-one], with 43.7 µM.
For `COc1cc(C)c(C=C2C(=O)Nc3ccc(Cl)cc32)cc1C(C)C` [Example 9, 5-Chloro-3-(5-isopropyl-4-methoxy-2-methylbenzylidene)-1,3-dihydroindol-2-one] the value was 34.6 µM; for `CCOc1cccc(-c2cc(OC)c(OC)cc2/C=C2/C(=O)Nc3ccccc32)c1` [Example 58, 3-(3′-Ethoxy-4,5-dimethoxybiphenyl-2-ylmethylene)-1,3-dihydroindol-2-one], greater than 100 µM.
Take `O=C1Nc2ncccc2/C1=C\c1ccc2c(c1)CCO2` [Example 73, 3-(2,3-Dihydrobenzofuran-5-ylmethylene)-1,3-dihydropyrrolo[2,3-b]pyridin-2-one]: the IC50 is greater than 50 µM.
